# Measurements as given in US11766451B2, “Utilizing polymers and antibiotics to enhance antimicrobial activity and inhibit antibiotic resistance” (International Business Machines Corporation, priority 2018, dated 2023).
# “Also recorded” adds a separate entry of the source.
# Columns and labels:
# A. baumannii (BAA-1709) = experiment: Checkerboard / broth microdilution MIC; assay type: cell-based, Acinetobacter baumannii; conditions: for Change of antibiotic MIC as polymer concentration increased from 1/16×MICp to ½×MICp: with example polycarbonate 200 (table 500); for MIC of rifampicin at 1/2 × MIC of adjuvant: rifampicin with the labelled adjuvant at 1/2 × its MIC; for MIC of rifampicin at 1/4 × MIC of adjuvant: rifampicin with the labelled adjuvant at 1/4 × its MIC; for MIC of rifampicin at 1/8 × MIC of adjuvant: rifampicin with the labelled adjuvant at 1/8 × its MIC
# Text: To evaluate antibacterial activity of antimicrobial polymer-antibiotic 306 combination therapies, the checkerboard method was used to create chart 400. By using this method, the minimum inhibitory concentration (“MIC”) of antibiotics 306, antimicrobial polymers (e.g., characterized by the first chemical structure 100 and/or the second chemical structure 102), and/or antibiotics 306/antimicrobial polymers (e.g., characterized by the first chemical structure 100 and/or the second chemical structure 102) combination at varying polymer concentrations can be determined. MIC was measured based on the broth microdilution method. 50 microliters (“μL”) of the example polycarbonate 200 at a serious of concentrations (micrograms per milliliter (μg/mL)) was added into a 96-well plate. […] Microbes (e.g., S. aureus, A. baumannii, E. coli, and/or P. aeruginosa) at exponential growth phases were diluted with […] (“MHB”) to about 10^5 colony forming units (“CFU”) per milliliter (CFU/mL), and 100 μL of diluted microbes were added into each well of the 96-well plate with 100 μL of antimicrobial polymer-antibiotic 306 mixture. The 96-well plate was incubated at 37 degrees Celsius (“° C.”) under shaking of 100 revolutions per minute (“rpm”) for about 18 to 20 hours. The concentration at which there was no bacterial growth observed by naked eyes or a microplate reader at 600 nanometers (nm) was recorded as the MIC. The checkerboard experiments were performed three times for each antimicrobial polymer-antibiotic 306 combination.
# A. baumannii BAA-1709 [1] = assay type: cell-based, Acinetobacter baumannii; conditions: for MIC of pure antibiotic over 30 generations: antibiotic only; for Delay of resistance of the bacteria against the antibiotic: in the presence of example polycarbonate 200 at ¼×MICp
# Method: To monitor development of antibiotic 306 resistance in A. baumannii, antibiotics 306 at sub-lethal doses were used in combination with the example polycarbonate 200 to repeatedly treat A. baumannii BAA-1709. With concentrations of the example polycarbonate 200 fixed at ¼ or ½×MIC, the MIC of antibiotics 306 was measured by the broth microdilution method. At half of the antibiotic 306 MIC, the survived bacteria, which reached logarithmic growth phase, were collected for MIC measurement of the subsequent passage. The development of antibiotic 306 resistance was monitored for 30 passages and the MIC of the antibiotics 306 at ¼ or ½×MIC of the antimicrobial polymer (e.g., characterized by the first chemical structure 100 and/or the second chemical structure 102) was recorded for each passage. The resistance development of antibiotics 306 only and polymer only was also evaluated over 30 passages.
# E. coli = experiment: Checkerboard / broth microdilution MIC; assay type: cell-based, Escherichia coli
# Text: To evaluate antibacterial activity of antimicrobial polymer-antibiotic 306 combination therapies, the checkerboard method was used to create chart 400. By using this method, the minimum inhibitory concentration (“MIC”) of antibiotics 306, antimicrobial polymers (e.g., characterized by the first chemical structure 100 and/or the second chemical structure 102), and/or antibiotics 306/antimicrobial polymers (e.g., characterized by the first chemical structure 100 and/or the second chemical structure 102) combination at varying polymer concentrations can be determined. MIC was measured based on the broth microdilution method. 50 microliters (“μL”) of the example polycarbonate 200 at a serious of concentrations (micrograms per milliliter (μg/mL)) was added into a 96-well plate. […] Microbes (e.g., S. aureus, A. baumannii, E. coli, and/or P. aeruginosa) at exponential growth phases were diluted with […] (“MHB”) to about 10^5 colony forming units (“CFU”) per milliliter (CFU/mL), and 100 μL of diluted microbes were added into each well of the 96-well plate with 100 μL of antimicrobial polymer-antibiotic 306 mixture. […] The concentration at which there was no bacterial growth observed by naked eyes or a microplate reader at 600 nanometers (nm) was recorded as the MIC. […]
# [2] = tested on: antibiotic-resistant strains of bacteria (e.g., A. baumannii); experiment: MIC against susceptible and antibiotic-resistant strains (table 700); assay type: cell-based, Acinetobacter baumannii
# Text: In addition to antibiotic-susceptible bacteria, antibiotic-resistant strains of bacteria (e.g., indicated with a star in FIG. 7) were also employed to study the effect of antibiotic 306/example polycarbonate 200 combination on antibacterial activity.
# A. baumannii strains = experiment: Concentrations (1/2 MIC, MBC) for 18 h bactericidal plate test; assay type: cell-based; conditions: Acinetobacter baumannii; all the A. baumannii strains; used together with example polycarbonate 200 at ½ MIC; read-out: minimum bactericidal concentration (“MBC”)
# Text: (§1) FIG. 13 illustrates a diagram of example, non-limiting table 1300 and/or table 1302, which can depict the synergistic effect of one or more combination therapies, which can comprise one or more antimicrobial polymers (e.g., characterized by the first chemical structure 100 and/or the second chemical structure 102) in combination with one or more antibiotics 306, against various bacteria (e.g., Gram-negative bacteria and/or Gram-positive bacteria) including antibiotic-resistant strains. Repetitive description of like elements employed in other embodiments described herein is omitted for sake of brevity.
# (§2) Further, FIG. 13 illustrates a diagram of example, non-limiting photos 1304 of three-component plates with bacteria treated by example polycarbonate 200, rifampicin, and/or a combination thereof for 18 hours. […] The data and/or photos 1304 depicted in FIG. 13 can be representative of three biological replicates, with the “*” denoting antibiotic-resistant strains of bacteria.
# E. aerogenes = experiment: as above; assay type: cell-based; conditions: Klebsiella aerogenes, used together with example polycarbonate 200 at ½ MIC, read-out: minimum bactericidal concentration (“MBC”)
# Text: as §1, §2
# K. pneumoniae = experiment: as above; assay type: cell-based; conditions: Klebsiella pneumoniae, used together with example polycarbonate 200 at ½ MIC, read-out: minimum bactericidal concentration (“MBC”)
# Text: as §1, §2
# A. baumannii BAA-1709 [3] = experiment: Killing kinetics (CFU counting) under combination treatments; assay type: cell-based, Acinetobacter baumannii; conditions: rifampicin 0.008 μg/mL plus the labelled adjuvant at ½×MIC; up to 24 h
# Text: To compare the efficiency of an antimicrobial polymer/rifampicin combination and an antimicrobial polymer/polymyxin combination, the CFU of A. baumannii BAA-1709 under different combination treatments were studied. […] The results of CFU counting are presented as mean±standard deviation of triplicate samples.
# [4] = tested on: A. baumannii (e.g., ATCC BAA-1709); experiment: Bacterial count after 18 hours of treatment; assay type: cell-based, Acinetobacter baumannii; conditions: treatment for 18 hours; polymer 3.9 or 7.8 μg/mL (graph 1002)
# Method: The results shown in graph 1002 were achieved after treatment for 18 hours.
# Further, FIG. 11 illustrates a diagram of example, non-limiting graph 1102, graph 1110, and/or graph 1118, which can depict that one or more combination therapies comprising one or more antimicrobial polymers (e.g., characterized by the first chemical structure 100, such as example polycarbonate 200, and/or the second chemical structure 102) and one or more antibiotics 306 can show stronger synergistic bactericidal effect than traditional combination therapies as evidenced by the bacterial count after 18 hours of treating A. baumannii (e.g., ATCC BAA-1709).
# [5] = repeated sub-MIC exposure, no polymer
compound,measurement,setting,value
"CC1(C)S[C@@H]2[C@H](NC(=O)Cc3ccccc3)C(=O)N2[C@H]1C(=O)O [Penicillin G, Benzylpenicillin]",MIC of antibiotics 306 w/o polymer,"A. baumannii (BAA-1709); antibiotic alone, no polymer",62.5 µg/mL
same,Change of antibiotic MIC as polymer concentration increased from 1/16×MICp to ½×MICp,A. baumannii (BAA-1709),significantly reduced
same,MIC of antibiotics 306 at 1/2 × MICp,A. baumannii (BAA-1709); with example polyionene 206 at 1/2 × MICp (MICp 7.8 μg/mL),7.8 µg/mL
same,MIC of antibiotics 306 at 1/4 × MICp,A. baumannii (BAA-1709); with example polyionene 206 at 1/4 × MICp (MICp 7.8 μg/mL),31.3 µg/mL
same,MIC of antibiotics 306 at 1/8 × MICp,A. baumannii (BAA-1709); with example polyionene 206 at 1/8 × MICp (MICp 7.8 μg/mL),62.5 µg/mL
same,MIC of antibiotics 306 at 1/16 × MICp,A. baumannii (BAA-1709); with example polyionene 206 at 1/16 × MICp (MICp 7.8 μg/mL),62.5 µg/mL
same,MIC of pure antibiotic over 30 generations,A. baumannii BAA-1709 [1],increased
same,Delay of resistance of the bacteria against the antibiotic,A. baumannii BAA-1709 [1],22 generations
same,MIC of pure antibiotic at generation 5,A. baumannii BAA-1709 [1]; [5],125 µg/mL
same,MIC of pure antibiotic at generation 30,A. baumannii BAA-1709 [1]; [5],1000 µg/mL
same,MIC of pure antibiotic before resistance evolution,A. baumannii BAA-1709 [1]; starting value,62.5 µg/mL
CC[C@H]1OC(=O)[C@H](C)[C@@H](O[C@H]2C[C@@](C)(OC)[C@@H](O)[C@H](C)O2)[C@H](C)[C@@H](O[C@@H]2O[C@H](C)C[C@H](N(C)C)[C@H]2O)[C@](C)(O)C[C@@H](C)CN(C)[C@H](C)[C@@H](O)[C@]1(C)O [azithromycin],Change of antibiotic MIC as polymer concentration increased from 1/16×MICp to ½×MICp,A. baumannii (BAA-1709),significantly reduced
same,Effect of example polycarbonate 200 on antibiotic potency,E. coli,enhance the potency
same,MIC of pure antibiotic over 30 generations,A. baumannii BAA-1709 [1],increased
same,MIC of antibiotic over 30 generations in the presence of example polycarbonate 200 at ¼×MICp,A. baumannii BAA-1709 [1]; polymer fixed at ¼×MICp,did not change
CO[C@H]1/C=C/O[C@@]2(C)Oc3c(C)c(O)c4c(O)c(c(/C=N/N5CCN(C)CC5)c(O)c4c3C2=O)NC(=O)/C(C)=C\C=C\[C@H](C)[C@H](O)[C@@H](C)[C@@H](O)[C@@H](C)[C@H](OC(C)=O)[C@@H]1C [rifampicin],MIC reduction compared with pure rifampicin,A. baumannii (BAA-1709); with example polycarbonate 200,over 2000 folds
same,MIC of antibiotic in the presence of the antimicrobial polymer at ¼×MICp,"A. baumannii (BAA-1709); with example polycarbonate 200 at ¼×MICp (e.g., 4 μg/mL)",0.13 µg/mL
same,MIC of antibiotic in the presence of the antimicrobial polymer at ½×MICp,"A. baumannii (BAA-1709); with example polycarbonate 200 at ½×MICp (e.g., 8 μg/mL)",0.002 µg/mL
same,MIC reduction at ½×MICp of the antimicrobial polymer,E. coli; with example polycarbonate 200 at ½×MICp,over 500 fold
same,MIC of rifampicin at antimicrobial polymer concentration of ¼×MICp,"[2]; antibiotic-resistant strains, with example polycarbonate 200",0.5 µg/mL
same,MIC reduction of rifampicin with polycarbonates of first chemical structure 100,[2]; both susceptible and antibiotic-resistant A. baumannii strains,up to 2048 fold
same,Delay of resistance of the bacteria against the antibiotic,A. baumannii BAA-1709 [1],17 generations
same,MBC,A. baumannii strains,0.015 µg/mL
same,MBC,E. aerogenes,2 µg/mL
same,MBC,K. pneumoniae,0.5 µg/mL
Polymyxin B,MIC of rifampicin at 1/2 × MIC of adjuvant,A. baumannii (BAA-1709),0.5 µg/mL
same,MIC of rifampicin at 1/4 × MIC of adjuvant,A. baumannii (BAA-1709),2.0 µg/mL
same,MIC of rifampicin at 1/8 × MIC of adjuvant,A. baumannii (BAA-1709),3.9 µg/mL
same,Bactericidal activity of rifampicin combined with adjuvant (CFU over time),A. baumannii BAA-1709 [3],no bactericidal activity over 24 h; also recorded: no bactericidal effect up to 24 hours
colistin,MIC of rifampicin at 1/2 × MIC of adjuvant,A. baumannii (BAA-1709),0.06 µg/mL
same,MIC of rifampicin at 1/4 × MIC of adjuvant,A. baumannii (BAA-1709),2.0 µg/mL
same,MIC of rifampicin at 1/8 × MIC of adjuvant,A. baumannii (BAA-1709),3.9 µg/mL
same,Bactericidal activity of rifampicin combined with adjuvant (CFU over time),A. baumannii BAA-1709 [3],no bactericidal activity over 24 h; also recorded: no bactericidal effect up to 24 hours
same,Effective dose of colistin as concentration of example polycarbonate 200 increases,[4],reduced
